Reference: the NIST ThermoML archive (doi:10.1016/j.fluid.2016.08.035)
Numbers after ± are expanded uncertainties.

Key:
[1] = xn = mol fraction of the nth substance listed; conditions: 101 kPa, Liquid, x2 = 0; for viscosity: Falling or rolling sphere viscometry; for speed of sound: Sing-around technique in a fixed-path interferometer; for mass density: Vibrating tube method
[2] = molar heat capacity at constant pressure; xn = mol fraction of the nth substance listed; conditions: 101 kPa, Liquid, DSC, x2 = 0

SMILES	viscosity ([1]; 278.15 K) [mPa·s]	speed of sound ([1]; 278.15 K) [m/s]	mass density ([1]; 278.15 K) [kg/m3]	viscosity ([1]; 298.15 K) [mPa·s]	speed of sound ([1]; 298.15 K) [m/s]	mass density ([1]; 298.15 K) [kg/m3]	viscosity ([1]; 318.15 K) [mPa·s]	speed of sound ([1]; 318.15 K) [m/s]	mass density ([1]; 318.15 K) [kg/m3]	viscosity ([1]; 338.15 K) [mPa·s]	speed of sound ([1]; 338.15 K) [m/s]	mass density ([1]; 338.15 K) [kg/m3]	molar heat capacity at constant pressure ([2]; 278.15 K) [J/K/mol]	molar heat capacity at constant pressure ([2]; 298.15 K) [J/K/mol]	molar heat capacity at constant pressure ([2]; 318.15 K) [J/K/mol]	molar heat capacity at constant pressure ([2]; 338.15 K) [J/K/mol]
CCCCCCCCCC [decane] + CC12CCC(CC1)C(C)(C)O2	1.19 ± 0.04	1315 ± 1.5	741.18 ± 0.24	0.86 ± 0.04	1234.7 ± 1.5	726.11 ± 0.24	0.66 ± 0.04	1156.6 ± 1.5	710.89 ± 0.24	0.54 ± 0.04	1080.5 ± 1.5	695.42 ± 0.25	305.94 ± 12	314.4 ± 12	323.94 ± 13	334.32 ± 13
CCCCCC [hexane] + CC12CCC(CC1)C(C)(C)O2	0.39 ± 0.04	1169 ± 1.5	673.1 ± 0.25	0.34 ± 0.04	1078.2 ± 1.5	655.3 ± 0.25	0.3 ± 0.04	988.59 ± 1.5	636.71 ± 0.25	0.26 ± 0.04	901.09 ± 1.5	617.44 ± 0.26	188.32 ± 7.3	194.96 ± 7.5	201.96 ± 7.8	208.99 ± 8.1
CCCCCCCC [octane] + CC12CCC(CC1)C(C)(C)O2	0.68 ± 0.04	1256.7 ± 1.3	714.55 ± 0.17	0.53 ± 0.04	1172.7 ± 1.2	698.51 ± 0.17	0.43 ± 0.04	1090.7 ± 1.2	682.19 ± 0.18	0.37 ± 0.04	1010.7 ± 1.2	665.43 ± 0.18	246.17 ± 9.5	253.89 ± 9.8	262.16 ± 10	270.96 ± 10
